Test results published in publication PMC12238238, “Identification of gut bacteria reductases that biotransform steroid hormones” (Nature Communications, 2025).

Assays:
baiH = molecular target: T1, baiH ([Clostridium] scindens, UniProt P32370); experiment: LC-MS of products in E. coli expressing the gene; format: cell-based; conditions: whole E. coli cells, anaerobic, 1 mg/100 mL steroid, 48 h, 37 °C; product progesterone
T1 construct: expressed in E. coli, whole-cell biotransformation
T1 sequence (P32370 1-661): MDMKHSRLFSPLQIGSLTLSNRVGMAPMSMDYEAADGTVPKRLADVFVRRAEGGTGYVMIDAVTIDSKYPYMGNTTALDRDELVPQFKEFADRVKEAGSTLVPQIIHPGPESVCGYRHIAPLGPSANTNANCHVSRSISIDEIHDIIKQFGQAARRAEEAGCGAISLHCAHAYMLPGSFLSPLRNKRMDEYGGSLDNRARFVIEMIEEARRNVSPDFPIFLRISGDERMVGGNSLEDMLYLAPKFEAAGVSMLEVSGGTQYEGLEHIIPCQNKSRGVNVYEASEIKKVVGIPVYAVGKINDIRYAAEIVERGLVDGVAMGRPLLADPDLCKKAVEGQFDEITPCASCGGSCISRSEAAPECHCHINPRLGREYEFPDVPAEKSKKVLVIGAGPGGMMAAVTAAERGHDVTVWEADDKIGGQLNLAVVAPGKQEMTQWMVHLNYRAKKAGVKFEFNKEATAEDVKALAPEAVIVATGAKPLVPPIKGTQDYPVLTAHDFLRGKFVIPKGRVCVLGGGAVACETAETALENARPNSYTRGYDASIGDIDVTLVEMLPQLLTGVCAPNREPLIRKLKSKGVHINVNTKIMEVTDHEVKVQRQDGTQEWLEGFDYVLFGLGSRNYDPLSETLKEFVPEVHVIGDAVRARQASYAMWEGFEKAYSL

[1] = molecular target: T2, ci2350 (Δ4-3-ketosteroid 5β-reductase); experiment: isothermal titration calorimetry; format: binding, [Clostridium] innocuum; conditions: 0.1 M sodium phosphate, 0.2 M NaCl, 20 mM BME, 0.5 mM CHAPS, pH 6.5, 25 °C; independent model, single site
T2 construct: recombinant in E. coli, Ni HisTrap purified (pET28a/kanamycin); mutants assayed in E. coli cells

dw0523 (3β-HSDH/I) = molecular target: T3, dw0523 (3β-HSDH/I) (Dysosmobacter welbionis, UniProt A0A4D7AXI1); experiment: LC-MS of products in E. coli expressing the gene; format: cell-based; conditions: whole E. coli cells, anaerobic, 1 mg/100 mL steroid, 48 h, 37 °C; product progesterone
T3 construct: gene EIO64_02590; expressed in E. coli, whole-cell biotransformation; separate (unfused) 3β-HSDH/I gene
T3 sequence (A0A4D7AXI1 1-497): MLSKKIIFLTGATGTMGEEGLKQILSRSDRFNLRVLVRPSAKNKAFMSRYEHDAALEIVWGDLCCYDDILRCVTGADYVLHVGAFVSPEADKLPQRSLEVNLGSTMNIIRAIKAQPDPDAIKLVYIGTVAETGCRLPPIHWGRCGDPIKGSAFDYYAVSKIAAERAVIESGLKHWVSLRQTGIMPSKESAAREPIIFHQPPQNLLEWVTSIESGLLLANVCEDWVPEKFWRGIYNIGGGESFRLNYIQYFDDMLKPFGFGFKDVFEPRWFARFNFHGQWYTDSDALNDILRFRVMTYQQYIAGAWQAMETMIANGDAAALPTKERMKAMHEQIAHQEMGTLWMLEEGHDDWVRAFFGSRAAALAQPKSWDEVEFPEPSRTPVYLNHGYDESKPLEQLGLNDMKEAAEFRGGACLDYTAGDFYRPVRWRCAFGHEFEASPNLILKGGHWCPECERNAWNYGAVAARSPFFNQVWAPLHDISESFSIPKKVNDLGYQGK

baiCD = molecular target: T4, baiCD ([Clostridium] scindens, UniProt P19410); experiment: LC-MS of products in E. coli expressing the gene; format: cell-based; conditions: whole E. coli cells, anaerobic, 1 mg/100 mL steroid, 48 h, 37 °C; product 5β-dihydroprogesterone
T4 construct: expressed in E. coli, whole-cell biotransformation
T4 sequence (P19410 1-639): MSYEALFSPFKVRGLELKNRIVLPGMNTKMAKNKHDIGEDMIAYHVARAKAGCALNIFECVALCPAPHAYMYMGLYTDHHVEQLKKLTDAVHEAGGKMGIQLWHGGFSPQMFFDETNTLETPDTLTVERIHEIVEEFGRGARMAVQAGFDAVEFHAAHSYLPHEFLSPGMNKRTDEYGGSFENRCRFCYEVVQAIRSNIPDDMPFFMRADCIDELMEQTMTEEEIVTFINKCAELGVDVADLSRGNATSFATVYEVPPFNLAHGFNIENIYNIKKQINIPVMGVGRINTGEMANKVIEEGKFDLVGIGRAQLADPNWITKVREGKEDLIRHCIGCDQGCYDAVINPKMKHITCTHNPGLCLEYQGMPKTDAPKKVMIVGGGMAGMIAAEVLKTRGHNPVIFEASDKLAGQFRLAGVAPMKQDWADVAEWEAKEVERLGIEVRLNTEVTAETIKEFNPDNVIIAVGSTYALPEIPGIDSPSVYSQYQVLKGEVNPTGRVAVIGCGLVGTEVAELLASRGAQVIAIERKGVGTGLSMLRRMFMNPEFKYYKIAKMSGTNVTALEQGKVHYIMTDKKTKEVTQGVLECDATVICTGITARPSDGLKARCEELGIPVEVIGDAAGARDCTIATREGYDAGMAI

## CC(=O)[C@H]1CC[C@H]2[C@@H]3C=CC4=CC(=O)CC[C@]4(C)[C@H]3CC[C@]12C [6-dehydroprogesterone]
baiH
  LC-MS of products in E. coli expressing the gene: only partial conversion of the substrate by C. scindens baiH
[1]
  Kd: 594 nM

## C[C@]12CCC(=O)C=C1CC[C@@H]1[C@@H]2C(=O)C[C@@]2(C)[C@H]1CC[C@]2(O)C(=O)CO [cortisone]
[1]
  Kd: 759 nM

## C[C@]12CCC(=O)C=C1CC[C@@H]1[C@@H]2[C@@H](O)C[C@@]2(C)[C@H]1CC[C@]2(O)C(=O)CO [hydrocortisone]
[1]
  Kd: 668 nM

## CC(=O)[C@H]1CC[C@H]2[C@@H]3CC=C4C[C@@H](O)CC[C@]4(C)[C@H]3CC[C@]12C [pregnenolone]
dw0523 (3β-HSDH/I)
  LC-MS of products in E. coli expressing the gene: with dw0523 producing only progesterone

## CC(=O)[C@H]1CC[C@H]2[C@@H]3CCC4=CC(=O)CC[C@]4(C)[C@H]3CC[C@]12C [progesterone]
baiCD
  LC-MS of products in E. coli expressing the gene: baiCD had limited, but detectable, reduction of progesterone
[1]
  Kd: 432 nM
